One assay has as its target T1, FLT3 ITD, D835V (Homo sapiens, UniProt P36888, D835V, form not given).
T1 sequence (P36888 1-993 D835V): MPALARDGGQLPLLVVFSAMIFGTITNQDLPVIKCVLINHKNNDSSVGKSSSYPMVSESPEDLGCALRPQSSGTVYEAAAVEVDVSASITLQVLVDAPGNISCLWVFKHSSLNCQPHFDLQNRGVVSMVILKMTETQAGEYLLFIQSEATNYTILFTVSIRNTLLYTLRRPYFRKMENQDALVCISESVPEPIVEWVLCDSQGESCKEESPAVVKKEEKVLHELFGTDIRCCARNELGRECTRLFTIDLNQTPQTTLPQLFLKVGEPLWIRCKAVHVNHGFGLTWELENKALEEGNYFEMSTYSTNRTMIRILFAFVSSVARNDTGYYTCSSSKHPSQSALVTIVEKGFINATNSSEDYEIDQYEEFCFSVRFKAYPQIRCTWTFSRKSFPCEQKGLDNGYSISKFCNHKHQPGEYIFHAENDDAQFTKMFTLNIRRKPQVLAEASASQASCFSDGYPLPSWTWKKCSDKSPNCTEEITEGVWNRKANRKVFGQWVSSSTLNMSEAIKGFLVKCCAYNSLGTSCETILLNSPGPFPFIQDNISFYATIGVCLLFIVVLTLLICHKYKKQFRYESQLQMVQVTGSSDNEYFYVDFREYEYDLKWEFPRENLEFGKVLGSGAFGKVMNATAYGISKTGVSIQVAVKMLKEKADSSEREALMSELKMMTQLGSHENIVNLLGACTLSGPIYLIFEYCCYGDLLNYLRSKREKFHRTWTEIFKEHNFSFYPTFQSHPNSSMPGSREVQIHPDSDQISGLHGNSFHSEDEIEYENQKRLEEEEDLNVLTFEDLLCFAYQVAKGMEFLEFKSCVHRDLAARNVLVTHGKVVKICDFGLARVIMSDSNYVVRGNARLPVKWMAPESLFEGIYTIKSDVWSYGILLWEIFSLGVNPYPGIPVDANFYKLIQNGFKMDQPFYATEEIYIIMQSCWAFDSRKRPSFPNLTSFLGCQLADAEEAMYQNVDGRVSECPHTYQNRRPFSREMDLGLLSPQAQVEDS
Nature of the assay: DiscoverX KINOMEscan competition binding, FLT3 ITD, D835V. Conditions: read-out: FLT3 ITD, D835V Kd.

Another assay has as its target T2, FLT3 ITD, F691L (Homo sapiens, UniProt P36888, F691L, form not given).
T2 sequence (P36888 1-993 F691L): T1 sequence (P36888 1-993 D835V) with F691L, V835D
Nature of the assay: DiscoverX KINOMEscan competition binding, FLT3 ITD, F691L. Conditions: read-out: FLT3 ITD, F691L Kd.

In the next assay the test system is THP1 cells. Nature of the assay: Combination drug screening, Cell Titer Glo, 10 × 10 matrix, THP1 cells. Format: cell-based. Conditions: THP1 cells; for Excess HSA Score: 10 × 10. On the technique in general: Cellular ATP, detected with luciferase, serves as a proxy for viable cell number.
The test system of the next assay is MOLM14(D835Y) cells. Type of assay: cell-based. Conditions: MOLM14(D835Y) cells; for Excess HSA Score: 10 × 10.
Where [1] appears, read: combination with (+)-BAY-1251152.
Where [2] appears, read: combination with Eprenetapopt/APR-246.
The mark [3] stands for this setting: combination with Venetoclax (ABT-199).

This note sets out measurements from US20250154144A1 (CHILDREN'S HOSPITAL MEDICAL CENTER, priority 2021, published 2025).

The structures appear in SMILES notation. Changes are numbered by the printed parent chain. Read-outs that look alike come from different tables or passages of the source.

Consider `CC(O)(c1cn2c(-c3ccnc(N[C@H]4CNCC[C@@H]4F)n3)cnc2cn1)C(F)(F)F` (single isomer, unassigned) [Compound 72], for which the Kd on FLT3 ITD, D835V was 0.08 nM; on FLT3 ITD, F691L, 1.8 nM. For the same compound, the “Excess HSA Score” value with THP1 cells (setting [1]) is reported as −155.7; in the assay with THP1 cells (combination with AMG-232) it was 364; in the assay on THP1 cells (combination with AZD-5363) it was −371.3; with THP1 cells (setting [2]) it was 594.2926; with THP1 cells (combination with Ivosidenib), 175.5; in the assay on THP1 cells (combination with Lenalidomide), 175.9. The “Excess HSA Score” value with THP1 cells (combination with Palbociclib) is −319; in the assay with THP1 cells (combination with Prednisolone), 201.6; in the assay with THP1 cells (combination with SNDX-5613) it was 342.4; in the assay on THP1 cells (combination with TNO-155) it was 908.1; in the assay with THP1 cells (combination with Trametinib) it was 354.3; with THP1 cells (combination with Ulixertinib) it was 1146. Also, the “Excess HSA Score” value in the assay on THP1 cells (setting [3]) was −1130; with MOLM14(D835Y) cells (setting [1]), 179; with MOLM14(D835Y) cells (combination with AMG-232) it was −165.4; in the assay on MOLM14(D835Y) cells (combination with AZD-5363), −687.9; in the assay with MOLM14(D835Y) cells (setting [2]), −80.14; in the assay with MOLM14(D835Y) cells (combination with Ivosidenib) it was −168.3. The “Excess HSA Score” value with MOLM14(D835Y) cells (combination with Lenalidomide) is recorded as 407.4; in the assay with MOLM14(D835Y) cells (combination with Palbociclib), −390.1; in the assay with MOLM14(D835Y) cells (combination with Prednisolone), 717.2; in the assay with MOLM14(D835Y) cells (combination with SNDX-5613), −77.23; in the assay on MOLM14(D835Y) cells (combination with TNO-155), −797.6; in the assay with MOLM14(D835Y) cells (combination with Trametinib), 218.5. In addition, the “Excess HSA Score” value is 672.6 with MOLM14(D835Y) cells (combination with Ulixertinib) and −1396 in the assay on MOLM14(D835Y) cells (setting [3]). The Comments entry with THP1 cells (combination with Ivosidenib) is recorded as “Antagonistic”; in the assay with THP1 cells (setting [3]) it was “Synergistic”; with MOLM14(D835Y) cells (setting [1]), “Antagonistic”; in the assay with MOLM14(D835Y) cells (setting [3]) it was “Synergistic”.

For the compound `F[C@H]1CCNC[C@@H]1Nc1cncc(-c2cnc3cc(OC4CC4)ccn23)n1` [Compound 12, 6-(7-cyclopropoxyimidazo[1,2-a]pyridin-3-yl)-N-((3S,4S)-4-fluoropiperidin-3-yl)pyrazin-2-amine], the dissociation constant Kd was determined as 0.035 nM at FLT3 ITD, D835V and 0.046 nM at FLT3 ITD, F691L. Moreover, the “Excess HSA Score” value in the assay with THP1 cells (setting [1]) was −730.8; with THP1 cells (combination with AMG-232) it was −0.2304; in the assay on THP1 cells (combination with AZD-5363), −798.3; with THP1 cells (setting [2]), 477.7; with THP1 cells (combination with Ivosidenib), −53.98; in the assay with THP1 cells (combination with Lenalidomide), −72.51. Besides, the “Excess HSA Score” value with THP1 cells (combination with Palbociclib) is 575.5; in the assay with THP1 cells (combination with Prednisolone), −176.7; with THP1 cells (combination with SNDX-5613), 75.74; in the assay with THP1 cells (combination with TNO-155) it was −498.7; in the assay with THP1 cells (combination with Trametinib), 300.014; in the assay with THP1 cells (combination with Ulixertinib), −95.31. In addition, the “Excess HSA Score” value is −1564 in the assay on THP1 cells (setting [3]); −346.5 with MOLM14(D835Y) cells (setting [1]); −464.9 in the assay on MOLM14(D835Y) cells (combination with AMG-232); −869.6 with MOLM14(D835Y) cells (combination with AZD-5363); 381.9 with MOLM14(D835Y) cells (setting [2]); −10.93 in the assay with MOLM14(D835Y) cells (combination with Ivosidenib). Also, the “Excess HSA Score” value in the assay on MOLM14(D835Y) cells (combination with Lenalidomide) is on record as 176.4; in the assay on MOLM14(D835Y) cells (combination with Palbociclib), −72.57; in the assay on MOLM14(D835Y) cells (combination with Prednisolone), 908.8; in the assay with MOLM14(D835Y) cells (combination with SNDX-5613), −187.4; in the assay with MOLM14(D835Y) cells (combination with TNO-155) it was −906.9; in the assay with MOLM14(D835Y) cells (combination with Trametinib), −87.67. For the same compound, the entries for the “Excess HSA Score” value in the assay with MOLM14(D835Y) cells (combination with Ulixertinib) and with MOLM14(D835Y) cells (setting [3]) were 256.8 and −1232.2388, respectively. Moreover, the Comments entry in the assay on THP1 cells (combination with AMG-232) is reported as “Additive”; in the assay on THP1 cells (combination with SNDX-5613) it was “Antagonistic”; in the assay on THP1 cells (setting [3]) it was “Synergistic”; in the assay on MOLM14(D835Y) cells (combination with Lenalidomide) it was “Antagonistic”; with MOLM14(D835Y) cells (setting [3]), “Synergistic”.

For `COc1cc2ncc(-c3cncc(N[C@H]4CNC[C@@H]4F)n3)n2nc1C1CC1` [Compound 22, 6-(6-cyclopropyl-7-methoxyimidazo[1,2-b]pyridazin-3-yl)-N-((3S,4S)-4-fluoropyrrolidin-3-yl)pyrazin-2-amine], the Kd at FLT3 ITD, D835V turned out to be 0.058 nM; at FLT3 ITD, F691L, 0.078 nM.

As for `COc1cc2ncc(-c3ccnc(N[C@H]4CNC[C@@H]4F)n3)n2nc1C1CC1` [Compound 49, 4-(6-cyclopropyl-7-methoxyimidazo[1,2-b]pyridazin-3-yl)-N-((3S,4S)-4-fluoropyrrolidin-3-yl)pyrimidin-2-amine], the dissociation constant (Kd) at FLT3 ITD, D835V stood at 0.04 nM; on FLT3 ITD, F691L, 0.085 nM.

Regarding `COc1cc2ncc(-c3ccnc(N[C@H]4CNCC[C@@H]4F)n3)n2nc1C1CC1` [Compound 51, 4-(6-cyclopropyl-7-methoxyimidazo[1,2-b]pyridazin-3-yl)-N-((3S,4S)-4-fluoropiperidin-3-yl)pyrimidin-2-amine], the Kd on FLT3 ITD, D835V was determined as 0.07 nM; at FLT3 ITD, F691L, 0.08 nM.

A word on the Kd: it is a measure of binding affinity in units of concentration.
